PMC4643811, “Structural basis of Lewis^b antigen binding by the Helicobacter pylori adhesin BabA” (Science Advances, 2015)
Where two headings read alike, the source gives them in different places.

Experiments:
[1] = molecular target: T1, BabA (extracellular domain, H. pylori J99) (Helicobacter pylori, UniProt Q9ZKV2); experiment: isothermal titration calorimetry; type: binding
T1 construct: N-terminal extracellular domain, amino acids 10-527 of mature BabA; three C-terminal tags (6xLys-c-Myc-6xHis) kept; periplasmic expression in E. coli XL10 Gold; beta-barrel membrane domain absent

[2] = molecular target: BabA (extracellular domain, H. pylori J99) (Helicobacter pylori, UniProt Q9ZKV2, N226A); details: pH 7.4, 25°C; protein 0.25 mM, glycan 10 mM
BabA (extracellular domain, H. pylori J99) (Helicobacter pylori, UniProt Q9ZKV2, N226A), sequence (Q9ZKV2 30-547 N226A): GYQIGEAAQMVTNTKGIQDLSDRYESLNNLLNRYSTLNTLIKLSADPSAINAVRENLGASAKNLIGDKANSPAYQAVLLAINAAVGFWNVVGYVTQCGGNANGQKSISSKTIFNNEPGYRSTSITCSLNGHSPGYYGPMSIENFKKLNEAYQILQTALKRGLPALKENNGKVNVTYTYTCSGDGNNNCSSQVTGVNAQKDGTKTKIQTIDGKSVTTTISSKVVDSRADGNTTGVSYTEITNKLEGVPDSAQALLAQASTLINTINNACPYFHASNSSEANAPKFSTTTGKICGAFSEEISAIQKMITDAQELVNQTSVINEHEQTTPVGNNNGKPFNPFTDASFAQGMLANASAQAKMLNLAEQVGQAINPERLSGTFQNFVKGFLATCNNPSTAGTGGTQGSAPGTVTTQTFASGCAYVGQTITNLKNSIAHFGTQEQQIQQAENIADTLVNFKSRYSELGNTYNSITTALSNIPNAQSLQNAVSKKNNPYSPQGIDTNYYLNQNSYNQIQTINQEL

T1 sequence (Q9ZKV2 entry or part of it): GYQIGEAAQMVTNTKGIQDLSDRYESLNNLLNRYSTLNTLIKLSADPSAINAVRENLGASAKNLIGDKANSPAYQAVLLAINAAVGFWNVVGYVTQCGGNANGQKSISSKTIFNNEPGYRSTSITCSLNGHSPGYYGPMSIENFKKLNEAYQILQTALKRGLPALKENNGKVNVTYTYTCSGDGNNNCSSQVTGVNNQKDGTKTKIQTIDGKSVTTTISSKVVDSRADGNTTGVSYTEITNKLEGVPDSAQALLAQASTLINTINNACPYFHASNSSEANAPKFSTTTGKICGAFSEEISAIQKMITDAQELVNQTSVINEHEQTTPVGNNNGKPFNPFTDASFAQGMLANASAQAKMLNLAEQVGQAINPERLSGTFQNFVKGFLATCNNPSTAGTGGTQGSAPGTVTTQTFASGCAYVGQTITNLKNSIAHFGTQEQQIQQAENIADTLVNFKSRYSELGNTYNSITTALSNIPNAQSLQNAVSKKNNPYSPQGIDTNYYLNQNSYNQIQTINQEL

Compound | Kd ([1]; pH 7.4, 20 mM tris-Cl, 300 mM NaCl, 25°C, single site) [µM] | Kd [2] [µM] | Kd ([1]; pH 7.4, 25°C, protein 0.25 mM, glycan 10 mM, read-out: KD) [µM]
CC(=O)N[C@H]1[C@H](O[C@H]2[C@@H](O)[C@@H](CO)O[C@@H](O[C@H]3[C@H](O)[C@@H](O)C(O)O[C@@H]3CO)[C@@H]2O)O[C@H](CO)[C@@H](O[C@@H]2O[C@@H](C)[C@@H](O)[C@@H](O)[C@@H]2O)[C@@H]1O[C@@H]1O[C@H](CO)[C@H](O)[C@H](O)[C@H]1O[C@@H]1O[C@@H](C)[C@@H](O)[C@@H](O)[C@@H]1O (stereo partly drawn) [Le^b] | ~252 | ~582 | 
H-1 antigen |  |  | ~617
